Source: paper PMC4105567, “Aurora Kinases as Druggable Targets in Pediatric Leukemia: Heterogeneity in Target Modulation Activities and Cytotoxicity by Diverse Novel Therapeutic Agents” (PLoS ONE, 2014)
Read-outs that look alike come from different tables or passages of the source.

Columns and labels:
C1 B-ALL cell line = test: Cytotoxicity assay, C1; assay type: cell-based, human; conditions: four days in culture, Alamar blue assay or automated microscopy, ± SD, three experiments
Protocol: (§1) Cell lines were cultured in Opti-MEM medium (Gibco, Life Technologies Corporation, Burlington, Ontario) supplemented with 10% heat inactivated fetal bovine serum (FBS) (Gibco), 100 units/ml penicillin and 100 units/ml streptomycin (Gibco) and 0.05 mM 2-mercaptoethanol (Sigma-Aldrich, Oakville, Ontario) in T25 flasks (Nalge Nunc, Rochester, New York) or T75 flasks (Corning Incorporated, Corning, New York). All cell cultures were maintained at 37°C in a humidified incubator with 5% CO2.
(§2) For cytotoxicity profiling of Aurora kinase inhibitors against leukemia cell lines, inhibitors or vehicle control (DMSO, Sigma-Aldrich) were diluted in 100 µl of Opti-MEM per well in 96 well plates (Grenier Bio-One, Monroe, North Carolina) in triplicate at final concentrations ranging from 1×10^−6 to 10 µM. 1×10^4 cells per well were seeded and plates were incubated for 4 days. Following incubation for 4 days, cell survival was quantified by Alamar blue assay (Invitrogen) or automated inverted microscopy using the Celigo Cell Cytometer (Cyntellect, San Diego, California). […] During this period of incubation, the absorbance at 570–620 nm was measured (Opsys MR Plate Reader, Dynex Technologies, Chantilly, Virginia) at various time points, depending on the cell line or sample. Percent survival was calculated by comparing the absorbance ratio of the test well to the control well multiplied by 100%, as indicated in the following formula: […]
(§3) For automated inverted microscopy, the number of cells in each well was determined using the direct cell counting application as described previously. Briefly, following adjustment of image acquisition settings for bright-field imaging, the wells containing cells and appropriate dilutions of inhibitors were individually scanned. Based on these images, analysis parameters, including intensity threshold and cell diameter, were modified for optimal inclusion of viable cells in treated and control wells. These parameters were applied for subsequent replicates involving the same leukemia cell line or sample. The percent survival was then calculated as a ratio of the number of cells in treated wells to the number of cells in control wells multiplied by 100%. Given that Aurora kinase inhibitors interfere with cytokinesis, cells that are committed to death may still contain enlarging but intact cytoplasmic content before the eventual loss of cytoplasmic membrane integrity. The accuracy of Alamar blue assay may be, in theory, affected by the timing of these events.

B1 B-ALL cell line = test: Cytotoxicity assay, B1; assay type: cell-based, human; conditions: four days in culture, Alamar blue assay or automated microscopy, ± SD, three experiments
Protocol: as §1, §2, §3

UOCB1 B-ALL cell line = test: Cytotoxicity assay, UOCB1; assay type: cell-based, human; conditions: four days in culture, Alamar blue assay or automated microscopy, ± SD, three experiments
Protocol: as §1, §2, §3

Nalm6 B-ALL cell line = test: Cytotoxicity assay, Nalm6; assay type: cell-based, human; conditions: four days in culture, Alamar blue assay or automated microscopy, ± SD, three experiments
Protocol: as §1, §2, §3

KOPN8 B-ALL cell line = test: Cytotoxicity assay, KOPN8; assay type: cell-based, human; conditions: four days in culture, Alamar blue assay or automated microscopy, ± SD, three experiments
Protocol: as §1, §2, §3

CEM T-ALL cell line = test: Cytotoxicity assay, CEM; assay type: cell-based, human; conditions: four days in culture, Alamar blue assay or automated microscopy, ± SD, three experiments
Protocol: as §1, §2, §3

Molt-3 T-ALL cell line = test: Cytotoxicity assay, Molt-3; assay type: cell-based, human; conditions: T-ALL cell line Molt-3, four days in culture, Alamar blue assay or automated microscopy, ± SD, three experiments
Protocol: as §1, §2, §3

Molm13 AML cell line = test: Cytotoxicity assay, Molm13; assay type: cell-based, human; conditions: four days in culture, Alamar blue assay or automated microscopy, ± SD, three experiments
Protocol: as §1, §2, §3

MV4-11 AML cell line = test: Cytotoxicity assay, MV4-11; assay type: cell-based, human; conditions: AML cell line MV4-11, four days in culture, Alamar blue assay or automated microscopy, ± SD, three experiments
Protocol: as §1, §2, §3

TIB-202 AML cell line = test: Cytotoxicity assay, TIB-202; assay type: cell-based, human; conditions: AML cell line TIB-202, four days in culture, Alamar blue assay or automated microscopy, ± SD, three experiments
Protocol: as §1, §2, §3

NB4 APML cell line = test: Cytotoxicity assay, NB4; assay type: cell-based, human; conditions: four days in culture, Alamar blue assay or automated microscopy, ± SD, three experiments
Protocol: as §1, §2, §3

HL-60 APML cell line = test: Cytotoxicity assay, HL-60; assay type: cell-based, human; conditions: APML cell line HL-60, four days in culture, Alamar blue assay or automated microscopy, ± SD, three experiments
Protocol: as §1, §2, §3

HL-60 RA APML cell line = test: Cytotoxicity assay, HL-60 RA; assay type: cell-based, human; conditions: APML cell line HL-60 RA, four days in culture, Alamar blue assay or automated microscopy, ± SD, three experiments
Protocol: as §1, §2, §3

Normal Lymphocytes = test: Cytotoxicity assay, normal lymphocytes; assay type: cell-based, human; conditions: normal lymphocytes (control for non-leukemia cytotoxicity), four days in culture, ± SD, three experiments
Protocol: (§4) These include B-ALL (Patient #1), relapsed AML (Patient #2), AML/CML (Patient #3), infant ALL (Patient #4), and initial ALL presenting with secondary AML (Patient #5). […] The diluted sample was then layered on a Ficoll-Paque (GE Healthcare, Piscataway, New Jersey) gradient at a 1∶2 ratio of Ficoll to diluted sample. Samples were then centrifuged 1800 rpm for 20 minutes at room temperature. The buffy coat was removed with a pipette and transferred to a new centrifuge tube and diluted with PBS. After an additional centrifugation at 1200 rpm, the white blood cell pellet was washed with PBS and centrifuged one last time. Cells were re-suspended in Opti-MEM and viable cells were counted using trypan blue (Invitrogen, Life Technologies Corporation, Burlington, Ontario) exclusion on a haemocytometer. An identical protocol was followed for the isolation of white blood cells, referred to as “normal lymphocytes” in the following paragraphs, from healthy volunteers. Samples grown in culture for up to six months were cultured in Opti-MEM medium supplemented with 10% heat inactivated FBS, penicillin/streptomycin and 2-mercaptoethanol.
as §2, §3

Bone Marrow Stroma = test: Cytotoxicity assay, bone marrow stroma; assay type: cell-based, human; conditions: bone marrow stroma (control for non-leukemia cytotoxicity), four days in culture, ± SD, three experiments
Protocol: as §2, §3

[1] = system: Patient #1 B-ALL primary leukemia cells; test: Cytotoxicity assay, primary sample Patient #1; assay type: cell-based, human; conditions: four days in culture, Alamar blue assay or automated microscopy, one complete study
Protocol: as §4, §2, §3

[2] = system: Patient #2 relapsed AML primary leukemia cells; test: Cytotoxicity assay, primary sample Patient #2; assay type: cell-based, human; conditions: four days in culture, Alamar blue assay or automated microscopy, one complete study
Protocol: as §4, §2, §3

[3] = system: Patient #3 AML/CML primary leukemia cells; test: Cytotoxicity assay, primary sample Patient #3; assay type: cell-based, human; conditions: four days in culture, Alamar blue assay or automated microscopy, one complete study
Protocol: as §4, §2, §3

[4] = system: Patient #4 infant leukemia primary cells; test: Cytotoxicity assay, primary sample Patient #4; assay type: cell-based, human; conditions: four days in culture, Alamar blue assay or automated microscopy, one complete study
Protocol: as §4, §2, §3

[5] = system: Patient #5 ALL/AML primary leukemia cells; test: Cytotoxicity assay, primary sample Patient #5; assay type: cell-based, human; conditions: read-out: IC50, Patient #5 ALL/AML
Protocol: as §4, §2, §3

[6] = system: normal cells versus leukemia cell lines; test: Comparison of cytotoxicity IC50 values, normal cells versus leukemia cell lines; assay type: cell-based, human; conditions: normal lymphocytes and bone marrow stroma versus leukemia cell lines of Table 2
Protocol: as §2, §3

SEM B-ALL cell line = test: Cytotoxicity assay, SEM; assay type: cell-based; conditions: Homo sapiens, 96 h, four days in culture, Alamar blue assay or automated microscopy, ± SD, three experiments
Protocol: as §1, §2, §3

Aurora-C = conditions: read-out: Targets (IC50 Value): Aurora-C; literature values; ref [10],[40],[44]–[64] as listed per inhibitor in Table 1; cited from earlier work
[7] = Homo sapiens, 96 h, primary sample, four days in culture, Alamar blue assay or automated microscopy, one complete study

| Compound | IC50 values for the normal cells compared with IC50 values for the leukemia cell lines (potential therapeutic window) [6] | IC50 (C1 B-ALL cell line; Homo sapiens, 96 h) [nM] | IC50 (SEM B-ALL cell line) [nM] | IC50 (B1 B-ALL cell line; Homo sapiens, 96 h) [nM] | IC50 (UOCB1 B-ALL cell line; Homo sapiens, UoC-B1, 96 h) [nM] | IC50 (Nalm6 B-ALL cell line; Homo sapiens, NALM-6, 96 h) [nM] | IC50 (KOPN8 B-ALL cell line; Homo sapiens, KOPN-8, 96 h) [nM] | IC50 (CEM T-ALL cell line; Homo sapiens, 96 h) [nM] | IC50 (Molt-3 T-ALL cell line; Homo sapiens, 96 h) [nM] | IC50 (Molm13 AML cell line; Homo sapiens, MOLM-13, 96 h) [nM] | IC50 (MV4-11 AML cell line; Homo sapiens, 96 h) [nM] | IC50 (TIB-202 AML cell line; Homo sapiens, 96 h) [nM] | IC50 (NB4 APML cell line; Homo sapiens, 96 h) [nM] | IC50 (HL-60 APML cell line; Homo sapiens, 96 h) [nM] | IC50 (HL-60 RA APML cell line; Homo sapiens, 96 h) [nM] | IC50 (Normal Lymphocytes; Homo sapiens, Lymphocyte, 96 h) [nM] | IC50 (Bone Marrow Stroma; Homo sapiens, 96 h) [nM] | IC50 ([1]; Homo sapiens, 96 h) [nM] | IC50 ([2]; Homo sapiens, 96 h) [nM] | IC50 ([3]; Homo sapiens, 96 h) [nM] | other results |
| --- | --- | --- | --- | --- | --- | --- | --- | --- | --- | --- | --- | --- | --- | --- | --- | --- | --- | --- | --- | --- | --- |
| COc1cc2c(Nc3ccc(NC(=O)c4ccccc4)cc3)ncnc2cc1OCCCN1CCOCC1 [ZM447439] | lower than the IC50 values for the normal cells, but not as pronounced | – | – | – | – | – | – | – | – | – | – | – | – | – | – | – | – | – | – | – | IC50 (C1 B-ALL cell line): 80 ± 20 nM; IC50 (B1 B-ALL cell line): 1000 ± 50 nM; IC50 (UOCB1 B-ALL cell line): 80 ± 20 nM; IC50 (Nalm6 B-ALL cell line): 80 ± 4 nM; IC50 (KOPN8 B-ALL cell line): 100 ± 70 nM; IC50 (CEM T-ALL cell line): 60 ± 30 nM; IC50 (Molt-3 T-ALL cell line): 90 ± 10 nM; IC50 (Molm13 AML cell line): 500 ± 300 nM; IC50 (MV4-11 AML cell line): 200 ± 100 nM; IC50 (TIB-202 AML cell line): 800 ± 100 nM; IC50 (NB4 APML cell line): 4000 ± 2000 nM; IC50 (HL-60 APML cell line): 1000 ± 100 nM; IC50 (HL-60 RA APML cell line): 500 ± 300 nM; IC50 (Normal Lymphocytes): 6000 ± 800 nM; IC50 (Bone Marrow Stroma): 2000 ± 400 nM; IC50 [1]: 20 nM; IC50 [2]: > 10000 nM; IC50 [3]: 10000 nM; IC50 [4]: 7000 nM; IC50 ([5]; primary sample, four days in culture, Alamar blue assay or automated microscopy, one complete study): 9 nM |
| Nc1nc(Nc2ccc(S(N)(=O)=O)cc2)nn1C(=O)c1c(F)cccc1F [JNJ-7706621] | lower than the IC50 values for the normal cells, but not as pronounced | 1000 ± 500 | 700 ± 300 | 1000 ± 100 | 200 ± 90 | 1000 ± 100 | 400 ± 80 | 300 ± 200 | 700 ± 100 | 2000 ± 600 | 800 ± 90 | 3000 ± 1000 | 2000 ± 900 | 5000 ± 2000 | 800 ± 100 | 7000 ± 500 | 7000 ± 800 | 1000 | 700 | > 10000 | IC50 ([4]; Homo sapiens, 96 h): 8000 nM; IC50 ([5]; Homo sapiens, 96 h): 0.5 nM |
| Cc1cc(Nc2cc(N3CCN(C)CC3)nc(/C=C/c3ccccc3)n2)n[nH]1 [ENMD-2076] | lower than the IC50 values for the normal cells, but not as pronounced | 700 ± 200 | 500 ± 400 | 1000 ± 300 | 1000 ± 500 | 200 ± 100 | 600 ± 300 | 600 ± 50 | 800 ± 50 | 40 ± 20 | 1 ± 0.1 | 800 ± 200 | 1000 ± 600 | 700 ± 90 | 700 ± 200 | 5000 ± 3000 | 3000 ± 1000 | 100 | 8 | 4000 | IC50 ([4]; Homo sapiens, 96 h): 10000 nM; IC50 [5, 7]: 30 nM |
| O=C(Nc1cccc(Cl)c1)Nc1ncc(CCNc2ncnc3ccsc23)s1 [SNS-314] | – | < 0.001 | < 0.001 | < 0.001 | < 0.001 | < 0.001 | < 0.001 | < 0.001 | < 0.001 | < 0.001 | < 0.001 | < 0.001 | 6 ± 4 | 0.02 | < 0.001 | 4000 ± 2000 | > 10000 | < 0.001 | 0.5 | 4000 | IC50 ([4]; Homo sapiens, 96 h): 8000 nM; IC50 ([5]; Homo sapiens, 96 h): < 0.001 nM; IC50 (Aurora-C): 3 nM |
| COc1cc(Nc2ncc3c(n2)-c2ccc(Cl)cc2C(c2c(F)cccc2OC)=NC3)ccc1C(=O)O [MLN8237] | higher than the IC50 values for the leukemia cell lines | 3 ± 1 | 4 ± 1 | 4 ± 3 | 0.003 | 6 ± 3 | 5 ± 2 | < 0.001 | < 0.001 | 4 ± 2 | 4 ± 1 | 0.4 | 60 ± 8 | 9 ± 0.9 | 4 ± 2 | 5000 ± 2000 | > 10000 | 6 | 500 | 700 | IC50 ([4]; Homo sapiens, 96 h): 3000 nM; IC50 [5, 7]: 0.1 nM |
